{"source": "paper PMC8496776", "about": "“Staphylococcus aureus Lipase 3 (SAL3) is a surface-associated lipase that hydrolyzes short chain fatty acids” (PLoS ONE, 2021)", "key": {"[1]": {"target": "T1, rSAL3 (Staphylococcus aureus lipase 3, SAL3) (Staphylococcus aureus, UniProt A0A0H2XHH9)", "T1 construct": "gene SAUSA300_0641", "T1 sequence (A0A0H2XHH9 entry or part of it)": "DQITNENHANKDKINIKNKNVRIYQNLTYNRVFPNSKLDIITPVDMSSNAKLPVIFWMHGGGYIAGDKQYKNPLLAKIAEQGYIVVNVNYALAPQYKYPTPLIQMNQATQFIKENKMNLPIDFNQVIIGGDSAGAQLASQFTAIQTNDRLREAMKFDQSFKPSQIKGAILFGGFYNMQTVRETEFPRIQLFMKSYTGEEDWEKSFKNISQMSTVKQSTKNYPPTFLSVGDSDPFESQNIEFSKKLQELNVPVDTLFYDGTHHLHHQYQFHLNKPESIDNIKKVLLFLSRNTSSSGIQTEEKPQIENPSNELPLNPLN", "assay": "LC-MS/MS loss of OAG without oleic acid release; also protein lipid overlay binding", "type": "biochemical", "settings": "2 h, 37 C, PBS; 2 ug/mL OAG; hydrolysis at the sn-2 acetate inferred"}, "[2]": {"target": "T1, rSAL3 (Staphylococcus aureus lipase 3, SAL3)", "assay": "p-nitrophenol release at […] nm", "type": "biochemical", "settings": "2 mM ester, 100 mM Tris HCl, 100 mM NaCl, pH 7, 37 C"}}, "data": [{"smiles": "CCCCCCCC/C=C\\CCCCCCCC(=O)OCC(CO)OC(C)=O", "note": "(centres unmarked) [1-oleoyl 2-acetyl glycerol]", "values": [{"measurement": "LC-MS/MS loss of OAG without oleic acid release; also protein lipid overlay bind", "setting": "[1]", "result": "marked reduction in the substrate only in reactions containing WT rSAL3"}]}, {"smiles": "CCCC(=O)Oc1ccc([N+](=O)[O-])cc1", "note": "[pNP-C4, paranitrophenol butyrate]", "values": [{"measurement": "specific activity", "setting": "[2]", "result": "Alanine substitution mutations introduced in rSAL3MUT abolished the activity against pNP-C4"}]}]}
